{
  "source": "patent EP4635958A1",
  "about": "“PYRIMIDINE-CONTAINING POLYCYCLIC DERIVATIVE INHIBITOR, AND PREPARATION METHOD THEREFOR AND USE THEREOF” (Shanghai Hansoh Biomedical Co., Ltd., priority 2022, dated 2024)",
  "key": {"[1]": {"system": "human colorectal cancer cell line (GP2D)", "assay": "Anti-tumor efficacy in mouse transplanted tumor model of human colorectal cancer cell line (GP2D)", "assay_type": "in vivo, mice (BALB/c nude)", "conditions": "30mpk, PO*BID, Day 14"}, "KRAS G12D-SOS1": {"molecular_target": "T1, KRAS G12D-SOS1 (Homo sapiens, UniProt P01116, G12D)", "T1 construct": "purchased Cisbio 63ADK000CB17PEG", "T1 sequence (P01116 1-188 isoform P01116-2 G12D)": "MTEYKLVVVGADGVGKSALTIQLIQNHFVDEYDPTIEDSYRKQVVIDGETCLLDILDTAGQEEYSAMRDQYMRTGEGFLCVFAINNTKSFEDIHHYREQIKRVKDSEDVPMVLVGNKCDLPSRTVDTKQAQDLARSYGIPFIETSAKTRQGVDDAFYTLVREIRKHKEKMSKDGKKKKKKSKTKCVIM", "assay": "Blocking of KRAS G12D-SOS1 protein binding (Cisbio KRAS-G12D/SOS1 Binding Assay Kit, time-resolved fluorescence)", "from_the_text": "• 1. Experimental objective: […] Experimental reagents and instruments The centrifuge (5810R) was purchased from Eppendorf; the pipette was purchased from Eppendorf or Rainin; and the microplate reader was purchased from BioTek (United States) with a model of SynergyH1 multifunctional microplate reader. KRAS-G12D/SOS1 Binding Assay Kit was purchased from Cisbio, with a catalog number of 63ADK000CB17PEG; GTP was purchased from Sigma, with a catalog number of G8877; 384-well plate was purchased from Perkin Elmer, with a catalog number of 6007299. The Diluent buffer in the kit was used to dilute the compound into 10× compound solution of different concentrations, and 2 uL was added to each well of the 384-well plate. Tag2-KRAS G12D protein and GTP were formulated into a mixed solution of 5×KRAS G12D-GTP protein using Diluent buffer, and Tag1-SOS1 protein was formulated into a 5×SOS1 protein solution using Diluent buffer. Each solution was added to the 384-well plate separately at 4 uL per well, and incubated at room temperature for 15 min. A mixed solution of 2× anti-Tag1-Tb^3+ and anti-Tag2-XL665 formulated using detection buffer was added to the 384-well plate at 10 µL per well, and incubated at 4°C in the dark for 3 h."}, "KRAS WT": {"molecular_target": "KRAS WT (Homo sapiens, UniProt P01116)", "sequence (P01116 1-188 isoform P01116-2)": "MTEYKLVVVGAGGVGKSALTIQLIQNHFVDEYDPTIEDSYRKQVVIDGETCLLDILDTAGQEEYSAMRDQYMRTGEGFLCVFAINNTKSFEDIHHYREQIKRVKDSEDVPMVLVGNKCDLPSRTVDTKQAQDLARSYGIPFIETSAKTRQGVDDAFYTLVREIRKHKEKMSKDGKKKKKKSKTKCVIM", "assay": "KRAS WT biochemical assay (Table 1, no method of its own)", "assay_type": "binding"}, "p-ERK in AsPC-1 cells": {"system": "p-ERK in AsPC-1 cells", "assay": "Inhibition of p-ERK in AsPC-1 cells (LANCE Ultra phospho-ERK1/2 kit)", "assay_type": "cell-based", "conditions": "Homo sapiens, ASPC1, 2 h with compound, read-out: AsPC-1_pERK IC50", "description": "1. Experimental objective: The inhibition activity of the example compounds on the phosphorylated ERK level in KRAS G12D mutant cells AsPC-1 was determined. 2. Experimental instruments: • 2.1 Instruments: Microplate reader (BioTek Synergy H1); Pipette (Eppendorf & Rainin) • 2.2 Reagents: Phosphorylated ERK1/2 (T202-Y204) LANCE Ultra Cellular Detection Kit was purchased from PerkinElmer, with a catalog number of TRF4000M; DMEM was purchased from Gibco, with a catalog number of 11995065; FBS was purchased from Gibco, with a catalog number of 10091148; PBS was purchased from Gibco, with a catalog number of 10010023; trypsin was purchased from Gibco, with a catalog number of 25200056; cell culture plates were purchased from Corning Company, with a catalog number of 3610; White opaque OptiPlate™-384 plates were purchased from PerkinElmer, with a catalog number of 6007290. 3. Experimental method: When AsPC-1 cells were cultured to appropriate confluence, the AsPC-1 cells were collected, and the cell density was adjusted to 1 × 10^6/mL using complete culture medium. […] The plate was read using BioTek Synergy H1 and the signal values at the emission wavelengths of 620 nm and 665 nm were detected using a time-resolved fluorescence program. […]"}, "[2]": {"conditions": "rat, plasma", "quoted_text": "The purpose of this experiment was to detect the stability of the example compounds in plasma of mouse, rat, dog and human.\nLiquid chromatography-mass spectrometer, centrifuge, vortexer, pipette, continuous dispenser, 96-well plate, 50% methanol aqueous solution, acetonitrile solution containing internal standard, blank matrix (plasma of rat, dog, or human), Propantheline (propantheline bromide), Mevinolin (lovastatin), and test compound.\nAfter whole blood was collected from animals or humans, it was placed in a test tube containing an anticoagulant and centrifuged at 3500 rpm for 10 min to collect the upper pale yellow plasma.\nThe compound was weighed and the stock solution was formulated with DMSO and the working solution was formulated with 100 mM phosphate buffer.\n2.36 mg of propantheline bromide was weighed and diluted with 1 mL of DMSO into a 10 mM stock solution; 10 µL of 10 mM stock solution was pipetted into 1 mL of 100 mM phosphate buffer to achieve a final concentration of 100 µM.\n4.05 mg of lovastatin was weighed and diluted with 1 mL of DMSO into a 10 mM stock solution; 10 µL of 10 mM stock solution was pipetted into 1 mL of 100 mM phosphate buffer to achieve a final concentration of 100 µM.\n• 1) In a 96-well plate, 285 µL of plasma and 15 µL of 10 µM compound (test compound) were added in sequence and incubated at 37°C. • 2) 40 µL was taken at 0, 15, 30, 60, 90, and 120 min (the sampling point can be fine-tuned) and 160 µL of acetonitrile stop solution containing internal standard was add. • 3) After centrifugation (3500 rpm, 10 min), 50 µL of supernatant was taken, and 50 µL of DDH2O added for dilution and then the obtained mixture was injected into LC-MS/MS.\n• Instruments: Shimadzu LC-20 AD • Chromatographic column: Phenomenex Gemiu ® C18 (50*4.6 mm, 5 µm particle size); • mobile phase: A: Acetonitrile, B: 0.1% formic acid solution 0-8 min: 5% A→95% A, 2.0-2.1 min: 90%A→5% A; Flow rate: 0.8 mL/min; Run time: 5.0 min; Injection volume: 5 µL.\n• Instrument: API4000 liquid chromatography-mass spectrometer, AB Company, USA; • the ion source was electrospray ionization source (ESI); • drying gas (N2) temperature was 500°C; • electrospray voltage was 5500V; • the detection method was positive ion detection; • the scanning method was selected reaction monitoring (MRM); • the scanning time was 0.1s."}},
  "data": [
    {"molecule": "4-((5S,5aS,6R,9S)-12-((1-((((R)-4-(difluoromethylene)-2-methylpiperidin-1-yl)methyl)cyclopropyl)methoxy)-1-fluoro-5-(methyl-d3)-5a,6,7,8,9,10-hexahydro-5H-4-oxa-3,10a,11,13,14-pentaaza-6,9-methylnaphtho[1,8-ab]hept-2-yl)-5-ethynyl-6-fluoronaphthalen-2-ol [Example 162]", "values": [
      {"measurement": "Tumor volume (mm^3, Mean ± SD) Day 14", "setting": "[1]", "value": 130, "unit": "mm^3"}
    ]},
    {"molecule": "C#Cc1c(F)ccc2cc(O)cc(-c3nc4c5c(nc(OCC6(CN7CCC(=C(F)F)CC7)CC6)nc5c3F)N3C[C@H]5CC[C@H](N5)[C@H]3CO4)c12", "note": "[Example 1-1, 4-((5aS,6S,9R)-12-((1-((4-(difluoromethylene)piperidin-1-yl)methyl)cyclopropyl)methoxy)-1-fluoro-5a,6,7,8,9,10-hexahydro-5H-4-oxa-3,10a,11,13,14-pentaaza-6,9-methylenenaphtho[1,8-ab]heptalene-2-yl)-5-ethynyl-6-fluoronaphthalen-2-ol]", "values": [
      {"measurement": "IC50", "setting": "KRAS G12D-SOS1", "value": 1.8, "unit": "nM"},
      {"measurement": "IC50", "setting": "KRAS WT", "value": 79, "unit": "nM"},
      {"measurement": "IC50", "setting": "p-ERK in AsPC-1 cells", "value": 1, "unit": "nM"}
    ]},
    {"molecule": "C#Cc1c(F)ccc2cc(O)cc(-c3nc4c5c(nc(OCC6(CN7CCC(=CF)CC7)CC6)nc5c3F)N3C[C@H]5CC[C@H](N5)[C@H]3[C@H](C)O4)c12", "note": "[Example 129, 5-ethynyl-6-fluoro-4-((5S,5aS,6S,9R)-1-fluoro-12-((1-((4-(fluoromethylene)piperidin-1-yl)methyl)cyclopropyl)methoxy)-5-methyl-5a,6,7,8,9,10-hexahydro-5H-4-oxa-3,10a,11,13,14-pentaaza-6,9-methylnaphtho[1,8-ab]hept-2-yl)naphthalen-2-ol]", "values": [
      {"measurement": "Tumor volume (mm^3, Mean ± SD) Day 14", "setting": "[1]", "value": 112, "unit": "mm^3"}
    ]},
    {"molecule": "[2H]C([2H])([2H])[C@@H]1Oc2nc(-c3cc(O)cc4ccc(F)c(C#C)c34)c(F)c3nc(OCC4(CN5CCC(=C(F)F)CC5)CC4)nc(c23)N2C[C@H]3CC[C@H](N3)[C@@H]12", "note": "[Example 161, 4-((5S,5aS,6S,9R)-12-((1-((4-(difluoromethylene)piperidin-1-yl)methyl)cyclopropyl)methoxy)-1-fluoro-5-(methyl-d3)-5a,6,7,8,9,10-hexahydro-5H-4-oxa-3,10a,11,13,14-pentaaza-6,9-methylnaphtho[1,8-ab]hept-2-yl)-5-ethynyl-6-fluoronaphthalen-2-ol]", "values": [
      {"measurement": "Tumor volume (mm^3, Mean ± SD) Day 14", "setting": "[1]", "value": 110, "unit": "mm^3"},
      {"measurement": "Remaining rate (%) 0 min", "setting": "[2]; 0 h", "value": 100.00, "unit": "%"},
      {"measurement": "Remaining rate (%) 15 min", "setting": "[2]; 0.25 h", "value": 94.50, "unit": "%"},
      {"measurement": "Remaining rate (%) 30 min", "setting": "[2]; 0.5 h", "value": 98.84, "unit": "%"},
      {"measurement": "Remaining rate (%) 60 min", "setting": "[2]; 1 h", "value": 98.63, "unit": "%"},
      {"measurement": "Remaining rate (%) 120 min", "setting": "[2]; 2 h", "value": 95.03, "unit": "%"}
    ]}
  ]
}
